In US4076659A, “L-Val^10 -somatostatin and intermediates thereto” (Eli Lilly and Company, priority 1976, dated 1978):
Bridge positions count the residues as written; N and C are the ends. Peptide text beside a SMILES is read from it.

Test system: release of growth hormone
Assay: Inhibition of growth hormone release in sodium pentobarbitol-stimulated rats (modified Brazeau method)
Format: in vivo, mature male Spraque-Dawley rats
Conditions: subcutaneously, sodium pentobarbitol-stimulated GH secretion, vs saline control group
Description: The product from Example 4 was tested for its activity in inhibiting the release of growth hormone. The procedure which was employed is carried out using mature male Spraque-Dawley rats (Laboratory Supply Company, Indianapolis, Indiana). The test is a modification of the method of P. Brazeau, W. Vale, and R. Guilleman, Endocrinology, 94 184 (1974). In this assay, five groups of eight rats each were employed. First, sodium pentobarbitol was administered to all 40 rats to stimulate growth hormone secretion. One of the groups of eight rats is the control group and received only saline. Two of the groups received somatostatin, one at 2 μg./rat, subcutaneously, and the other at 50 μg./rat, subcutaneously. The other two groups received L-Val^10 -somatostatin, one at 2 μg./rat, subcutaneously and the other at 50 μg./rat, subcutaneously. The degree of inhibition of serum growth hormone concentration then was determined with respect to the control group, and the relative activities of L-Val^10 -somatostatin and somatostatin itself were compared.

## CC(C)[C@@H]1NC(=O)[C@H](CCCCN)NC(=O)[C@H](Cc2c[nH]c3ccccc23)NC(=O)[C@H](Cc2ccccc2)NC(=O)[C@H](Cc2ccccc2)NC(=O)[C@H](CC(N)=O)NC(=O)[C@H](CCCCN)NC(=O)[C@@H](NC(=O)CNC(=O)[C@H](C)N)CSSC[C@@H](C(=O)O)NC(=O)[C@H](CO)NC(=O)[C@H]([C@@H](C)O)NC(=O)[C@H](Cc2ccccc2)NC1=O [L-Val^10 -somatostatin] (H-AGCKNFFWKVFTSC-OH; disulfide 3-14)
2 μg./rat
  diminished serum growth hormone concentration over control: 49%
50 μg./rat
  diminished serum growth hormone concentration over control (inhibition): 72%
